In patent publication US10093675B2, “6,8-disubstituted-9-(heterocyclyl)purines, compositions containing these derivatives and their use in cosmetic and medicinal applications” (USTAV EXPERIMENTALNI BOTANIKY AV CR, V.V.I., priority 2014, dated 2018):

Experiments:
[1] = test system: excised wheat leaf tips (Triticum aestivum cv. Hereward); assay: Senescence inhibition on winter wheat leaf segments (retention of chlorophyll); assay type: in vivo; settings: 10^−4 mol/L; 96 hours in the dark; activity of kinetin set at 100%
Experimental: Seeds of winter wheat, Triticum aestivum cv. Hereward, were washed under running water for 24 hours and then sown on vermiculite soaked with Knop's solution. They were placed in the grown chamber at 25° C. with a 16/8 hours light period at […]. After 7 days, the first leaf was fully developed and the second leaf had started to grow. A tip section of the first leaf, approximately 35 mm long, was removed from 5 seedlings and trimmed slightly to a combined weight of 100 mg. The basal ends of the five leaf tips were placed in the wells of a microtiter polystyrene plate containing […] of a cytokinin solution each. The entire plate was inserted into a plastic box lined with paper tissues soaked in distilled water to prevent leaf sections from drying out. After 96 hours incubation in the dark at 25° C., the leaves were removed and chlorophyll extracted by heating at 80 C for 10 min in 5 ml of 80% ethanol (v/v). The sample volume was then restored to 5 ml by the addition of 80% ethanol (v/v). The absorbance of the extract was recorded at 665 nm. In addition, chlorophyll extracts from fresh leaves and leaf tips incubated in deionized water were measured. From the obtained data, the concentration with highest activity was selected for each compound tested. Relative activity of the compound at this concentration was calculated (see Table 6 below). The activity obtained for 10^−4 M kinetin (Kin) was set as 100%. The values shown are means of five replicates and the whole experiment was repeated twice.
The compounds to be tested were dissolved in dimethylsulfoxide (DMSO) and the solution brought up to 10^−3 M with distilled water. […] As summarized in Table 6 below, the presence of C-8 substitutent was beneficial and led to increase of antisenescent properties.

[2] = test system: human diploid fibroblasts (HDF cells; HDF25, HDF45, HDF80); assay: Inhibition of human cell aging: senescent cells by beta-galactosidase staining; assay type: cell-based; settings: for SENESCENT CELLS (%) HDF25: human diploid fibroblasts passage 25, beta-galactosidase staining; for SENESCENT CELLS (%) HDF45: human diploid fibroblasts passage 45, beta-galactosidase staining; for SENESCENT CELLS (%) HDF80: human diploid fibroblasts passage 80, beta-galactosidase staining
Experimental: In this example, human diploid fibroblasts (HDF cells of various passage levels: passage 25—designated HDF25; passage 45—designated HDF45; passage 80—designated HDF80) were stained for beta-galactosidase activity. The medium used for the cell cultivation was removed the cells were washed twice in […], and fixed in 2-3 ml of fixing solution comprised of a 2% formaldehyde and 0.2% glutaraldehyde in PBS. The cells were incubated at room temperature for 5 minutes, and then washed twice with PBS. The cells were subsequently incubated at 37° C. […] In this experiment, senescent cells, but no other cells were stained blue due to the action of beta-galactosidase on the substrate.

[3] = test system: Salmonella typhimurium histidien auxotrophs TA98 and TA100; assay: Ames test; assay type: cell-based; settings: 2.5 to 5000 μg/plate; presence and absence of Aroclor-induced rat liver S9
Experimental: A number of tests related to the safety of have been carried out using conventionally accepted protocols and procedures. The results of these studies are summarized herein. Tests were carried out using DMSO as solvent and dose levels of compound 21, 24, 26, 27, 39, 41, 45, 48, 50, 52, 53, 54, 55, 56, 63, 64, 66, 67, 68, 69, 70, 71, 72, 74, 76, 124, 125, 126, 127, 128, 129, 130, 145, 146, 147, 149, 150, 151, 208, 216, 218 a 243 at 2.5, 5.0, 15, 50, 500, 1500, and 5000 μg/plate based upon standard protocol and procedures (Ames et al., Mutation Research, 31, 347-364 (1975); Maron et al., Mutation Research, 113, 173-215 (1983)).

[4] = test system: cytokinin-dependent tobacco callus Nicotiana tabacum L. cv. Wisconsin 38; assay: Plant cell division: growth of cytokinin-dependent tobacco callus; assay type: cell-based; settings: for Activity (%); (s.d.): relative activity at concentration with highest activity, 10^−6 M kinetin set at 100%; for Concentration with highest activity (mol/l): tobacco callus fresh weight increase after four weeks, tested 10^−8 M to 10^−4 M
Experimental: Cytokinin-dependent tobacco callus Nicotiana tabacum L. cv. Wisconsin 38 was maintained at 25° C. in darkness on modified MS medium, containing 4 μmol/l nicotinic acid, 2.4 μmol/l pyridoxine hydrochloride, 1.2 μmol/l thiamine, 26.6 μmol/l glycine, 1.37 μmol/l glutamine, 1.8 μmol/l myo-inositol, 30 g/l of sucrose, 8 g/l of agar, 5.37 μmol/l NAA and 0.5 μmol/l BAP. Subcultivation was carried out every three weeks. Fourteen days before the bioassay, the callus tissue was transferred to the media without BAP. Biological activity was determined from the increase in fresh callus weight after four weeks of cultivation. Five replicates were prepared for each cytokinin concentration and the entire test was repeated twice. From the obtained data, the concentration with highest activity was selected for each compound tested. Relative activity at this concentration was calculated (see Table 17 below). The activity obtained for 10^−6 M kinetin (Kin) was set as 100%.
The cytokinins to be tested were dissolved in dimethylsulfoxide (DMSO) and the solution brought up to 10^−3M with distilled water.

| Structure (SMILES) | Activity (%) (s.d.), retention of chlorophyll [1] | SENESCENT CELLS (%) HDF25 [2] | SENESCENT CELLS (%) HDF45 [2] | SENESCENT CELLS (%) HDF80 [2] | mutagenic response [3] | Activity (%); (s.d.) [4] | Concentration with highest activity (mol/l) [4] |
| --- | --- | --- | --- | --- | --- | --- | --- |
| Oc1cccc(CNc2ncnc3c2nc(I)n3C2CCCCO2)c1 (stereo not drawn) [Compound 53] | 125 (±6) % | 2% | 5% | 21% | no positive mutagenic responses | – | – |
| c1coc(CNc2ncnc3[nH]cnc23)c1 [kinetin, reference compound] | 100% | 3% | 5% | 38% | – | – | – |
| Fc1ccc(CNc2ncnc3c2nc(I)n3C2CCCCO2)cc1F (stereo not drawn) [Compound 55] | 133 (±5) % | 3% | 4% | 18% | no positive mutagenic responses | – | – |
| COc1ccc(CNc2ncnc3c2nc(Br)n3C2CCCCO2)cc1OC (stereo not drawn) [Compound 41] | 133 (±7) % | 2% | 6% | 21% | no positive mutagenic responses | – | – |
| Oc1ccc(CNc2ncnc3c2nc(I)n3C2CCCCO2)cc1O (stereo not drawn) [Compound 54] | 138 (±7) % | 3% | 5% | 20% | no positive mutagenic responses | – | – |
| Oc1cccc(CNc2ncnc3c2nc(Cl)n3C2CCCO2)c1 (stereo not drawn) [Compound 70] | 126 (±1) % | 2% | 5% | 18% | no positive mutagenic responses | 110 (±1) % | 10^−6-10^−4 mol/l |
| Fc1cccc(CNc2ncnc3c2nc(Cl)n3C2CCCO2)c1 (stereo not drawn) [Compound 71] | 119 (±3) % | 3% | 6% | 19% | no positive mutagenic responses | 116 (±2) % | 10^−6-10^−4 mol/l |
| CC(C)=CCNc1ncnc2c1nc(Br)n2C1CCCO1 (stereo not drawn) [Compound 75] | – | – | – | – | – | 119 (±4) % | 10^−6-10^−4 mol/l |
| C/C(=C/CNc1ncnc2c1nc(Br)n2C1CCCO1)CO (stereo not drawn) [Compound 74] | 127 (±5) % | 3% | 5% | 21% | no positive mutagenic responses | 122 (±4) % | 10^−6-10^−4 mol/l |
| Fc1cccc(CNc2ncnc3c2nc(I)n3C2CCCCO2)c1 (stereo not drawn) [Compound 50] | 121 (±4) % | 3% | 4% | 19% | no positive mutagenic responses | – | – |
| Fc1ccc(CNc2ncnc3c2nc(Cl)n3C2CCCCO2)cc1F (stereo not drawn) [Compound 11] | 127 (±5) % | – | – | – | – | – | – |
| OCCNc1nc2c(NCc3ccco3)ncnc2n1C1CCCCO1 (stereo not drawn) [Compound 243, 6-furfurylamino-8-(2-hydroxyethylamino)-9-(tetrahydropyran-2-yl)-9H-purine] | – | – | – | – | no positive mutagenic responses | – | – |
| Brc1nc2c(NCc3ccco3)ncnc2n1C1CCCO1 (stereo not drawn) [Compound 72] | 106 (±2) % | 3% | 4% | 17% | no positive mutagenic responses | – | – |
| Oc1cccc(CNc2ncnc3c2nc(I)n3C2CCCO2)c1 (stereo not drawn) [Compound 76] | 112 (±3) % | 3% | 4% | 15% | no positive mutagenic responses | 114 (±3) % | 10^−6-10^−4 mol/l |
| COc1ccc(CNc2ncnc3c2nc(I)n3C2CCCCO2)cc1OC (stereo not drawn) [Compound 56] | 141 (±8) % | 3% | 5% | 21% | no positive mutagenic responses | – | – |
| Clc1nc2c(NCc3ccco3)ncnc2n1C1CCCO1 (stereo not drawn) [Compound 63] | 110 (±2) % | 2% | 4% | 19% | no positive mutagenic responses | – | – |
| COc1cccc(CNc2ncnc3c2nc(I)n3C2CCCCO2)c1 (stereo not drawn) [Compound 52] | 120 (±3) % | 2% | 6% | 21% | no positive mutagenic responses | – | – |
| Fc1ccc(CNc2ncnc3c2nc(Cl)n3C2CCCO2)cc1F (stereo not drawn) [Compound 67] | 128 (±6) % | 4% | 6% | 18% | no positive mutagenic responses | – | – |
| COc1ccc(CNc2ncnc3c2nc(Cl)n3C2CCCCO2)cc1OC (stereo not drawn) [Compound 12] | 140 (±7) % | – | – | – | – | – | – |
| Ic1nc2c(NCc3ccco3)ncnc2n1C1CCCCO1 (stereo not drawn) [Compound 45, 8-Iodo-6-furfurylamino-9-(tetrahydropyran-2-yl)-9H-purine] | 112 (±4) % | 3% | 5% | 20% | no positive mutagenic responses | – | – |
| Oc1ccc(CNc2ncnc3c2nc(Cl)n3C2CCCO2)cc1O (stereo not drawn) [Compound 66] | 132 (±5) % | 2% | 4% | 16% | no positive mutagenic responses | – | – |
| C/C(=C\CNc1ncnc2c1nc(I)n2C1CCCCO1)CO (stereo not drawn) [Compound 48] | 120 (±4) % | 2% | 4% | 21% | no positive mutagenic responses | – | – |
